We go through 17 compounds from patent US9828379B2 (priority 2013, dated 2017).

Holding throughout (test): In vitro competitive activity-based protein profiling (Table 2, % inhibition at 1 μM)
Common to all, as to assay type: biochemical

In one assay the target is T1, MAGL (Mus musculus, UniProt O35678).
T1 sequence (O35678 1-303): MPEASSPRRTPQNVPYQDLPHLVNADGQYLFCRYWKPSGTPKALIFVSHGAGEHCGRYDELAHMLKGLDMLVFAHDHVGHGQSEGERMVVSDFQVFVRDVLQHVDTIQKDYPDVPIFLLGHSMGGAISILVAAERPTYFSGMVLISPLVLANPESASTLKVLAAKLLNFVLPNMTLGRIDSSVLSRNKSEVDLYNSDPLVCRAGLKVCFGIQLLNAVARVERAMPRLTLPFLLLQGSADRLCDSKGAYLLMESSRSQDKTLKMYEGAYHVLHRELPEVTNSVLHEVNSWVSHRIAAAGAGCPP
The following applies: read-out: % Inhibition at 1 μM MAGL. How it is done: After 30 min, FP—Rh (1.0 μL, 50 μM in DMSO) was added and the mixture was incubated for another 30 min at 37° C. Reactions were quenched with SDS loading buffer (50 μL-4×) and run on SDS-PAGE.
Cell lysates were diluted with mock proteomes for use in competitive ABPP experiments.

The target in the next assay is T2, FAAH (Mus musculus, UniProt O08914).
T2 sequence (O08914 1-579): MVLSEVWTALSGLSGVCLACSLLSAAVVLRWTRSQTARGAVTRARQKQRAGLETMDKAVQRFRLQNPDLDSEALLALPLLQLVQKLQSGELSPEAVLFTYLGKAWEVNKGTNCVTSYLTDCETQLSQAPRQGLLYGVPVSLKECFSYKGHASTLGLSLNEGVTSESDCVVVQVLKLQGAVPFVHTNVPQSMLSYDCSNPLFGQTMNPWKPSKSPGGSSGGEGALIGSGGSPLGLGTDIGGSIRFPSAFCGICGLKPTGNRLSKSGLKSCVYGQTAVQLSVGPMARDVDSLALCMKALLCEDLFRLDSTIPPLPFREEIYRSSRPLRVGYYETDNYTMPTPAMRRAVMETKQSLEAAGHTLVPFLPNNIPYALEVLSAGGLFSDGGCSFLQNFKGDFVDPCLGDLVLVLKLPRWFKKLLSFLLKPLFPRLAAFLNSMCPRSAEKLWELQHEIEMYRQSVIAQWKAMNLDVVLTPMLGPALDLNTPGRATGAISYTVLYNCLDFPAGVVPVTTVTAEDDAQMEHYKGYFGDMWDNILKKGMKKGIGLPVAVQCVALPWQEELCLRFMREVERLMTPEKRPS
The following applies: read-out: % Inhibition at 1 μM FAAH. How it is done:
(§1) After 30 min, FP—Rh (1.0 μL, 50 μM in DMSO) was added and the mixture was incubated for another 30 min at 37° C. Reactions were quenched with SDS loading buffer (50 μL-4×) and run on SDS-PAGE. Following gel imaging, serine hydrolase activity was determined by measuring fluorescent intensity of gel bands corresponding to MAGL, ABHD6 and FAAH using ImageJ 1.43 u software.
(§2) hMAGL was expressed in HEK293T cells according to previously reported methods (see Niphakis, Long, and Blankman, J. L., et al. (2007) Chem. Biol. 14:1347-1356). Cell lysates were diluted with mock proteomes for use in competitive ABPP experiments.

The target in the next assay is T3, ABHD6 (Mus musculus, UniProt Q8R2Y0).
T3 sequence (Q8R2Y0 1-336): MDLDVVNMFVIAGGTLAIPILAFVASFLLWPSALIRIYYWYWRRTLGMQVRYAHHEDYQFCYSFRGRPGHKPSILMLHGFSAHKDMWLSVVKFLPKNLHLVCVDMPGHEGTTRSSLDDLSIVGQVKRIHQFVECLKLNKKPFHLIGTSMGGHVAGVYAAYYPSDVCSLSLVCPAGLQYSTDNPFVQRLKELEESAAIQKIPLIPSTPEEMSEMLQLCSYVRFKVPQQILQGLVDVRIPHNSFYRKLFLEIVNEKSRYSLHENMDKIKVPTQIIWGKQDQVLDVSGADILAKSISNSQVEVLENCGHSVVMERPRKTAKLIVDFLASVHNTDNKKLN
The following applies: read-out: % Inhibition at 1 μM ABHD6. How it is done:
as §1, §2

The structures appear in SMILES notation.

`CC(C)c1cc(CN2CC3CN(C(=O)ON4C(=O)CCC4=O)CC3C2)n(C2CCCCC2)n1` (stereo not drawn) [Example 123, 2,5-Dioxopyrrolidin-1-yl 5-[[1-cyclohexyl-3-(propan-2-yl)-1H-pyrazol-5-yl]methyl]-octahydropyrrolo[3,4-c]pyrrole-2-carboxylate]: the inhibition at 1 µM on MAGL was 25 to 75%; on FAAH, less than 25%; on ABHD6, greater than 75%.
The like results for `O=C(OC(C(F)(F)F)C(F)(F)F)N1CC2CN(Cc3ccc(Cl)cc3N3CCOCC3)CC2C1` (stereo not drawn) [Example 18, 1,1,1,3,3,3-Hexafluoropropan-2-yl 5-[[4-chloro-2-(morpholin-4-yl)phenyl]methyl]-octahydropyrrolo[3,4-c]pyrrole-2-carboxylate] were, in that order, greater than 75%, 25 to 75% and 25 to 75%.
As to `CC(=O)N1CCN(c2cc(C(C)C)ccc2CN2CC3CN(C(=O)ON4C(=O)CCC4=O)CC3C2)CC1` (stereo not drawn) [Example 99, 2,5-Dioxopyrrolidin-1-yl 5-[[2-(4-acetylpiperazin-1-yl)-4-(propan-2-yl)phenyl]methyl]-octahydropyrrolo[3,4-c]pyrrole-2-carboxylate], the inhibition at 1 µM at MAGL, at FAAH and at ABHD6 was less than 25% each time.
Take `Cc1c(CN2CC3CN(C(=O)ON4C(=O)CCC4=O)CC3C2)cccc1N1CCN(S(C)(=O)=O)CC1` (stereo not drawn) [Example 141, 2,5-dioxopyrrolidin-1-yl 5-[[3-(4-methanesulfonylpiperazin-1-yl)-2-methylphenyl]methyl]-octahydropyrrolo[3,4-c]pyrrole-2-carboxylate]: the inhibition at 1 µM on MAGL is 25 to 75%; at FAAH, less than 25%; at ABHD6, less than 25%.
Regarding `O=C(OC(C(F)(F)F)C(F)(F)F)N1CC2CN(Cc3ccc(F)cc3N3CCOCC3)CC2C1` (stereo not drawn) [Example 14, 1,1,1,3,3,3-Hexafluoropropan-2-yl 5-[[4-fluoro-2-(morpholin-4-yl)phenyl]methyl]-octahydropyrrolo[3,4-c]pyrrole-2-carboxylate], the inhibition at 1 µM is greater than 75% on MAGL, 25 to 75% on FAAH and less than 25% on ABHD6.
The corresponding values for `CC1COCCN1c1ccc(CN2CC3CN(C(=O)ON4C(=O)CCC4=O)CC3C2)c(F)c1` (stereo not drawn) [Example 100, 2,5-Dioxopyrrolidin-1-yl 5-[[2-fluoro-4-(3-methylmorpholin-4-yl)phenyl]methyl]-octahydropyrrolo[3,4-c]pyrrole-2-carboxylate] are 25 to 75%, less than 25% and less than 25%.
The corresponding values for `O=C(OC(C(F)(F)F)C(F)(F)F)N1CC2CN(Cc3ccc(C(=O)N4CCOCC4)c(OC(F)(F)F)c3)CC2C1` (stereo not drawn) [Example 191, 1,1,1,3,3,3-hexafluoropropan-2-yl 5-(4-(morpholine-4-carbonyl)-3-(trifluoromethoxy)benzyl)hexahydropyrrolo[3,4-c]pyrrole-2(1H)-carboxylate] are less than 25%, less than 25% and less than 25%.
The like results for `CC(=O)N1CCN(c2ccc(CN3CC4CN(C(=O)ON5C(=O)CCC5=O)CC4C3)c(Cl)c2)CC1` (stereo not drawn) [Example 103, 2,5-Dioxopyrrolidin-1-yl 5-[[4-(4-acetylpiperazin-1-yl)-2-chlorophenyl]methyl]-octahydropyrrolo[3,4-c]pyrrole-2-carboxylate] were, in that order, less than 25%, less than 25% and less than 25%.
For the compound `CC(=O)N1CCN(c2ccc(CN3CC4CN(C(=O)ON5C(=O)CCC5=O)CC4C3)c(F)c2)CC1` (stereo not drawn) [Example 101, 2,5-Dioxopyrrolidin-1-yl 5-[[4-(4-acetylpiperazin-1-yl)-2-fluorophenyl]methyl]-octahydropyrrolo[3,4-c]pyrrole-2-carboxylate], the inhibition at 1 µM on MAGL, on FAAH and on ABHD6 was less than 25% each time.
`Cc1cccc(CN2CC3CN(C(=O)ON4C(=O)CCC4=O)CC3C2)c1N1CCN(C)CC1` (stereo not drawn) [Example 138, 2,5-dioxopyrrolidin-1-yl 5-[[3-methyl-2-(4-methylpiperazin-1-yl)phenyl]methyl]-octahydropyrrolo[3,4-c]pyrrole-2-carboxylate]: the inhibition at 1 µM at MAGL, at FAAH and at ABHD6 was less than 25% each time.
For the compound `CC(C)c1ccc(CN2CC3CN(C(=O)ON4C(=O)CCC4=O)CC3C2)c(N2CCOCC2)c1` (stereo not drawn) [Example 97, 2,5-Dioxopyrrolidin-1-yl 5-[[2-(morpholin-4-yl)-4-(propan-2-yl)phenyl]methyl]-octahydropyrrolo[3,4-c]pyrrole-2-carboxylate], the inhibition at 1 µM on MAGL, at FAAH and on ABHD6 was less than 25% each time.
Turning to `O=C(ON1C(=O)CCC1=O)N1CC2CN(Cc3ccc(Cl)cc3N3CCCC3)CC2C1` (stereo not drawn) [Example 94, 2,5-Dioxopyrrolidin-1-yl 5-[[4-chloro-2-(pyrrolidin-1-yl)phenyl]methyl]-octahydropyrrolo[3,4-c]pyrrole-2-carboxylate], the results for the inhibition at 1 µM at MAGL, at FAAH and at ABHD6 were 25 to 75%, 25 to 75% and less than 25%, respectively.
For `O=C(ON1C(=O)CCC1=O)N1CC2CN(Cc3ccc(C(=O)N4CCCCC4)cc3Cl)CC2C1` (stereo not drawn) [Example 161, 2,5-dioxopyrrolidin-1-yl 5-([2-chloro-4-[(piperidin-1-yl)carbonyl]phenyl]methyl)-octahydropyrrolo[3,4-c]pyrrole-2-carboxylate], the inhibition at 1 µM at MAGL, on FAAH and on ABHD6 was 25 to 75% each time.
`O=C(ON1C(=O)CCC1=O)N1CC2CN(Cc3ccc(Cl)cc3N3CCC4(CCNC4=O)CC3)CC2C1` (stereo not drawn) [Example 112, 2,5-Dioxopyrrolidin-1-yl 5-[(4-chloro-2-[1-oxo-2,8-diazaspiro[4.5]decan-8-yl]phenyl)methyl]-octahydropyrrolo[3,4-c]pyrrole-2-carboxylate]: the figures for the inhibition at 1 µM on MAGL, at FAAH and at ABHD6 were 25 to 75%, less than 25% and less than 25%, respectively.
With `Cc1cccc(-c2cc(CN3CC4CN(C(=O)ON5C(=O)CCC5=O)CC4C3)n(C)n2)c1` (stereo not drawn) [Example 199, 2,5-dioxopyrrolidin-1-yl 5-((1-methyl-3-(m-tolyl)-1H-pyrazol-5-yl)methyl)hexahydropyrrolo[3,4-c]pyrrole-2(1H)-carboxylate], the values for the inhibition at 1 µM on MAGL, at FAAH and on ABHD6 were 25 to 75%, less than 25% and less than 25%, respectively.
As for `Cn1nc(-c2cccc(F)c2)cc1CN1CC2CN(C(=O)ON3C(=O)CCC3=O)CC2C1` (stereo not drawn) [Example 198, 2,5-dioxopyrrolidin-1-yl 5-((3-(3-fluorophenyl)-1-methyl-1H-pyrazol-5-yl)methyl)hexahydropyrrolo[3,4-c]pyrrole-2(1H)-carboxylate], the inhibition at 1 µM on MAGL, on FAAH and on ABHD6 was less than 25% throughout.
For the compound `CC(C)c1ccc(CN2CC3CN(C(=O)ON4C(=O)CCC4=O)CC3C2)c(N2CCCC2)c1` (stereo not drawn) [Example 98, 2,5-Dioxopyrrolidin-1-yl 5-[[4-(propan-2-yl)-2-(pyrrolidin-1-yl)phenyl]methyl]-octahydropyrrolo[3,4-c]pyrrole-2-carboxylate], the inhibition at 1 µM is 25 to 75% on MAGL, less than 25% at FAAH and less than 25% on ABHD6.
